Laboratory results published in patent US10662229B2, “Spider venom peptides and methods of use for modulating sodium channels” (priority 2016, dated 2020).

Columns and labels:
hNav1.5 [1] = target: T1, hNav1.5 (Homo sapiens, UniProt Q14524); assay: Automated patch clamping (QPatch-16), hNav1.5; type: cell-based
T1 construct: host or cells: HEK293
Method: (§1) HEK293 cells stably expressing hNav1.1-1.7 or CHO cells stably expressing hNav1.8 (as described in Example 3 above) were cultured in a T-175 flask in selection antibiotic-free media at 37° C. Cells were grown to 70-80% confluence and harvested using Detachin (Bio-Scientific, NSW, Australia) at 37° C. for 2 min. Dissociated cells were then resuspended in Ex-Cell ACF CHO Medium with HEPES (25 mM; Sigma-Aldrich Co.) and allowed to recover on the QStirrer for 30 min.
(§2) The extracellular solution contained in mM: NaCl 145, KCl 4, CaCl2 2, MgCl2 1, HEPES 10 and glucose 10. The pH was adjusted to 7.4 with NaOH and osmolarity was adjusted with sucrose to 305 mOsm. The intracellular solution contained in mM: CsF 140, ethylene glycol tetraacetic acid (EGTA)/CsOH 1/5, HEPES 10 and NaCl 10. The pH was adjusted to 7.3 with CsOH and osmolarity adjusted with sucrose to 320 mOsm. […]
(§3) The current-voltage (IV) curve was constructed with a holding potential of −80 mV followed by a pre-pulse of −100 mV for 50 ms and a series of 50 ms step pulses that ranged from −80 to 50 mV in 5 mV increments before returning to a holding potential of −80 mV. Voltage-dependence of activation was determined as normalized Nav conductance (GNa) using: GNa=INa/(Vmemb−Vrev), where Vmemb is the membrane potential and Vrev is the reversal potential for each cell. […]

hNav1.1 = target: T2, hNav1.1 (Homo sapiens, UniProt P35498); assay: FLIPR membrane potential assay, hNav1.1; type: cell-based
T2 construct: host or cells: HEK293
How it was run: (§4)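 Readout is a FLIPR^TETRA membrane potential signal sampled every second for 300 s after agonists are added. HEK293 cells stably carrying the human channel are loaded with red membrane potential dye at 37° C for 30 min.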

hNav1.8 = target: T3, hNav1.8 (Homo sapiens, UniProt Q9Y5Y9); assay: FLIPR membrane potential assay, hNav1.8; type: cell-based
T3 construct: host or cells: HEK293
How it was run: as §4

[2] = test system: ciguatoxin-induced spontaneous pain in mice; assay: Ciguatoxin-induced spontaneous pain; type: in vivo; details: intraplantar, co-injected with ciguatoxin
Method: (§5) For behavioural assessment adult male C57BL/6J mice aged 6-8 weeks were used. Animals were housed in groups of 3 or 4 per cage, under 12 h light-dark cycles and had standard rodent chow and water ad libitum.
Ciguatoxin (P-CTX-1; isolated in accordance with the protocol of Hamilton et al. (2002) Toxicon, 40(6): 685-693) was diluted in phosphate-buffered saline/0.1% BSA (10 nM) and administered by shallow subcutaneous (intraplantar) injection to the left hind paw of mice in a volume of 40 μL under light isoflurane (3%) anesthesia. Mice were then placed individually into polyvinyl boxes (10×10×10 cm), and spontaneous pain behavior (licks and flinches) was counted by an investigator unaware of the treatments received from video recordings for 10 min post-injection.

hNav1.2 [3] = target: T4, hNav1.2 (Homo sapiens, UniProt Q99250); assay: Automated patch clamping (QPatch-16), hNav1.2; type: cell-based
T4 construct: host or cells: HEK293
Method: as §1, §2, §3

hNav1.3 = target: T5, hNav1.3 (Homo sapiens, UniProt Q9NY46); assay: FLIPR membrane potential assay, hNav1.3; type: cell-based
T5 construct: host or cells: HEK293
How it was run: as §4

hNav1.2 [4] = target: T4, hNav1.2; assay: FLIPR membrane potential assay, hNav1.2; type: cell-based
How it was run: as §4

hNav1.9 = target: T6, hNav1.9 (Homo sapiens, UniProt Q9UI33); assay: Automated patch clamp (PatchXpress), hNav1.9; type: cell-based
T6 construct: expressed in transfected cells; host or cells: HEK293
Method: Cells were triturated until a single cell suspension was achieved. […] Cell aliquots of 5 mL (1×10^6 cells) were placed in a 15 mL centrifuge tube and spun at 100×g for 2 minutes.

[5] = test system: post-operative pain in mice; assay: Post-operative pain (plantar incision); type: in vivo; details: 24 h after incision
Method: as §5
Mechanical allodynia was assessed using an electronic von Frey apparatus (MouseMet Electronic von Frey, TopCat Metrology Ltd, United Kingdom). Mice were habituated in individual mouse runs for at least 5 min prior to testing. A soft-tipped 0.3 mm diameter flat-ended polypropylene probe was applied to the plantar surface of each hind paw with pressured applied at a force rise rate of ˜1 g/s. The force that elicited paw withdrawal was calculated using the MouseMet Software. The paw withdrawal force (PWF) was determined from the average of three tests, separated by at least 2 min.
To induce post-operative (post-surgical) pain, the plantar skin of the hind paw of mice was incised under light isoflurane (3%) anaesthesia. Briefly, a 7 mm longitudinal incision was made through the skin and fascia 3 mm from the proximal edge of the heel using a sterile surgical scalpel (#11). The underlying plantaris muscle was elevated and also incised longitudinally. The wound was closed with two silk sutures. Mechanical allodynia was assessed 24 h after the incisional injury.

hNav1.5 [6] = target: T1, hNav1.5; assay: FLIPR membrane potential assay, hNav1.5; type: cell-based
How it was run: as §4

T4 sequence (Q99250 whole entry): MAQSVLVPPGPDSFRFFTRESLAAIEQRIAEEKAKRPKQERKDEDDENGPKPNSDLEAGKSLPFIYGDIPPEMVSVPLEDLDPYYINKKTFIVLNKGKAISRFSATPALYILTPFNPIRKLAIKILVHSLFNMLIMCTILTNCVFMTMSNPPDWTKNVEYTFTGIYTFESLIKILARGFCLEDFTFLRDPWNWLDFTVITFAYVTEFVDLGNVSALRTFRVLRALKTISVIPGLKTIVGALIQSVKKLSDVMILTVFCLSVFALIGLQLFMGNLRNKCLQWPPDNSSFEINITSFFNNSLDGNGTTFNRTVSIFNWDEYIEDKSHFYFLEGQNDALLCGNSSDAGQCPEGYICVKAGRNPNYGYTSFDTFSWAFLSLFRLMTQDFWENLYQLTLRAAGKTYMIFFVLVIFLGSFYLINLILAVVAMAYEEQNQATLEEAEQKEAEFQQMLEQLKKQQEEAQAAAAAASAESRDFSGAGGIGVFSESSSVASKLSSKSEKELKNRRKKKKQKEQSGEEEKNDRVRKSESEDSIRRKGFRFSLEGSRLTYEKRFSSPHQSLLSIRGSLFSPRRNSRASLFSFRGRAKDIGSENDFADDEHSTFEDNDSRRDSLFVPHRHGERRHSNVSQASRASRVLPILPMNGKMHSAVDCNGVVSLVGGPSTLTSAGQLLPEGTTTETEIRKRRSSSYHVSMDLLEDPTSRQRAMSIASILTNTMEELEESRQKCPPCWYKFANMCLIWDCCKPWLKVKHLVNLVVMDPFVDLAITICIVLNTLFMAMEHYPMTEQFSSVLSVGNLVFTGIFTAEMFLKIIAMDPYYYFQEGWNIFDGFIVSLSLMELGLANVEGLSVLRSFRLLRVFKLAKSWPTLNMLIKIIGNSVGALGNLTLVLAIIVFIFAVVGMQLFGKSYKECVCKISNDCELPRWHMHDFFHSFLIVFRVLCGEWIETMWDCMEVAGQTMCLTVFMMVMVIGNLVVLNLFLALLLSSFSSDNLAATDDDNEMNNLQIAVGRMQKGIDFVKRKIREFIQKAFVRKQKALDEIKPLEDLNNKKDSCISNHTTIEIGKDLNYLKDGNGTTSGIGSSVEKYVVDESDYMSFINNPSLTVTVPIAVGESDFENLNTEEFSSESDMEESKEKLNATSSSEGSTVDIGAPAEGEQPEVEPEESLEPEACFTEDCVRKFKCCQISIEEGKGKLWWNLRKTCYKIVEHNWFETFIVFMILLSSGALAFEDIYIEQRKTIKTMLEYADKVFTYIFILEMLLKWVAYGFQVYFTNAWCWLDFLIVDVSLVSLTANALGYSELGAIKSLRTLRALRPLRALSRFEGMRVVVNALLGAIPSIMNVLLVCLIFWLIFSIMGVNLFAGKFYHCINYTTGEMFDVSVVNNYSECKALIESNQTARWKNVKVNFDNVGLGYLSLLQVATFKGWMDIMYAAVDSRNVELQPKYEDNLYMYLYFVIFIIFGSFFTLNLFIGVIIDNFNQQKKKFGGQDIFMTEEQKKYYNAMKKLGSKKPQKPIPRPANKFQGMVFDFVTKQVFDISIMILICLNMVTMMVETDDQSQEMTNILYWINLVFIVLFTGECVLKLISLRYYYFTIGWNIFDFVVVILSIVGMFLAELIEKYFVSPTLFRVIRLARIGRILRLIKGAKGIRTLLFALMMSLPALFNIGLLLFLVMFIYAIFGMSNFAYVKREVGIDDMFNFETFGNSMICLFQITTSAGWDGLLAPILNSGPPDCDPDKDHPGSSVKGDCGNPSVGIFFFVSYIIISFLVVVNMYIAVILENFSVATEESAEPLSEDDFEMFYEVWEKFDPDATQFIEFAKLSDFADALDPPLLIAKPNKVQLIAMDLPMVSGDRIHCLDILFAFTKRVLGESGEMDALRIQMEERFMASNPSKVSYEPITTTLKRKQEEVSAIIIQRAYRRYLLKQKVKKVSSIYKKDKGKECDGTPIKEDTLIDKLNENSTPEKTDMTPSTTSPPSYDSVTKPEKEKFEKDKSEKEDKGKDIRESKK
T1 sequence (Q14524 whole entry): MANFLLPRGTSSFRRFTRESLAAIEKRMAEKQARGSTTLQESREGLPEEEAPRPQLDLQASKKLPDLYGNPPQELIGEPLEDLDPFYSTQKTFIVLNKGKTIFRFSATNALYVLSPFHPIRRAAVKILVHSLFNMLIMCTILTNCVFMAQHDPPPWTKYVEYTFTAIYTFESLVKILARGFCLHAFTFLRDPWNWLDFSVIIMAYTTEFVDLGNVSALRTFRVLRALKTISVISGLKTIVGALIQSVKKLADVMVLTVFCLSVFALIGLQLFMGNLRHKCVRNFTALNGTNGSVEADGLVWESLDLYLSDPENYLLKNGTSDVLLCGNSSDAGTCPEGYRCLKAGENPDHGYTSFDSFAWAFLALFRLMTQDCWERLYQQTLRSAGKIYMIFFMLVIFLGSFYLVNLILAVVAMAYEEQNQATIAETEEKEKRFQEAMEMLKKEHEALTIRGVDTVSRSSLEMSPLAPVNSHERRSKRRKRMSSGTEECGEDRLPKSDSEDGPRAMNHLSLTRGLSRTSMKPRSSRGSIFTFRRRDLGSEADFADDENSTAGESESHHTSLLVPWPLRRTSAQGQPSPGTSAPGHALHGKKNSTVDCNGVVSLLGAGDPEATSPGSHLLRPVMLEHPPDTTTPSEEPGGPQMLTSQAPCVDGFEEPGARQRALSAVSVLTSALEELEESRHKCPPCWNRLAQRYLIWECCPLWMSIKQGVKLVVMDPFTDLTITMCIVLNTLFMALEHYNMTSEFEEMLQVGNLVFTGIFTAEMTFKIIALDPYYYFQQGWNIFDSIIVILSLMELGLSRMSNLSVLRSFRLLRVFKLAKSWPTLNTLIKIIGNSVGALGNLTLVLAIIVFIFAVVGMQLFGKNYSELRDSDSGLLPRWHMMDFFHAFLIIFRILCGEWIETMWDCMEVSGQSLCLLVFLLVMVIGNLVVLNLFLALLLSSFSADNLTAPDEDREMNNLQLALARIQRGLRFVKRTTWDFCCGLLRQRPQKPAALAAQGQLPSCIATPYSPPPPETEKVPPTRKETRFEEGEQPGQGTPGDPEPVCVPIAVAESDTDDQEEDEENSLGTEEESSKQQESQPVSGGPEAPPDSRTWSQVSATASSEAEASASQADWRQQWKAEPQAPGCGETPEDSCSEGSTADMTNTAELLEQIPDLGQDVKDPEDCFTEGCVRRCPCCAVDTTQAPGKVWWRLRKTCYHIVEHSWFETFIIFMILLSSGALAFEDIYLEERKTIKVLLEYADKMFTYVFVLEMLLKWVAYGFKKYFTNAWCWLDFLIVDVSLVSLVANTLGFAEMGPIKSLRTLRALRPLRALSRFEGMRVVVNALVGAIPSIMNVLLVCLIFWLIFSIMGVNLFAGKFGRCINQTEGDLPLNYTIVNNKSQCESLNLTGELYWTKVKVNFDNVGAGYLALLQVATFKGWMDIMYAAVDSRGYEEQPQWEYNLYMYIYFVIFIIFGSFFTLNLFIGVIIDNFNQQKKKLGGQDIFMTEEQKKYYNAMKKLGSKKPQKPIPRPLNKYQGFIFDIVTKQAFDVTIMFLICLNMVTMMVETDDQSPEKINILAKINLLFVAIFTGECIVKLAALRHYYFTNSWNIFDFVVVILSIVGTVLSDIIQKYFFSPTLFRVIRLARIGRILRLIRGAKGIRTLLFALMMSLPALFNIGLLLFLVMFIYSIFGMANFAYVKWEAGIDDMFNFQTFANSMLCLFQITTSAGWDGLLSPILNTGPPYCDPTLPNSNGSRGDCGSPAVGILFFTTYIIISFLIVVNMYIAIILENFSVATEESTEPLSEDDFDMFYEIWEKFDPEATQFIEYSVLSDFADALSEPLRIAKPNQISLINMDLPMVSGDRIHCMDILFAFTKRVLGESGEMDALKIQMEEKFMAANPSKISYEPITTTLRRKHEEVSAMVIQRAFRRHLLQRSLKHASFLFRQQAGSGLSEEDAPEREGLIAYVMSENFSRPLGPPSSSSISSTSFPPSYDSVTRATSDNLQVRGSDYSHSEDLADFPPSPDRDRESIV

CSCC[C@@H]1NC(=O)[C@H](Cc2ccc(O)cc2)NC(=O)[C@H](CCCNC(=N)N)NC(=O)[C@@H](NC(=O)[C@@H](N)CC(=O)O)CSSC[C@@H]2NC(=O)[C@@H]3CSSC[C@@H](C(=O)N[C@@H](C)C(=O)N[C@@H](Cc4c[nH]c5ccccc45)C(=O)N[C@@H](CC(=O)O)C(=O)N[C@@H](Cc4ccccc4)C(=O)N[C@H](C(=O)N[C@@H](Cc4ccccc4)C(=O)N[C@H](C(=O)O)[C@@H](C)O)[C@@H](C)O)NC(=O)[C@H](Cc4ccc(O)cc4)NC(=O)[C@H](CCCCN)NC(=O)[C@H](CCSC)NC(=O)[C@H](CCCCN)NC(=O)[C@H](CCCNC(=N)N)NC(=O)[C@H](CCCCN)NC(=O)[C@H](CSSC[C@H](NC(=O)[C@H](CC(=O)O)NC(=O)CNC(=O)[C@H](Cc4ccccc4)NC1=O)C(=O)N[C@@H](CCC(=O)O)C(=O)N[C@@H](CCCCN)C(=O)N[C@@H](CC(=O)O)C(=O)N[C@@H](CCC(=O)O)C(=O)N[C@@H](CC(=O)O)C(=O)N3)NC(=O)CNC(=O)[C@H](CC(C)C)NC(=O)[C@H](Cc1cnc[nH]1)NC(=O)[C@H](CCCCN)NC2=O [Pnc1a]
IC50 (hNav1.5 [1]): 0.977 µM | IC50 (hNav1.1): 13.2 µM | IC50 (hNav1.8): 26.3 µM | ciguatoxin-induced spontaneous pain behaviours [2]: significantly reduced | IC50 (hNav1.2 [3]): 0.126 µM | IC50 (hNav1.3): 8.13 µM | IC50 (hNav1.2 [4]): 2.95 µM | IC50 (hNav1.9): 2.34 µM | mechanical threshold of the injured paw compared to vehicle ([5]; intraperitoneal 3 mg/kg): significantly increased | mechanical threshold of the injured paw compared to vehicle ([5]; intraplantar 3 μM): significantly increased | IC50 (hNav1.5 [6]): 85.1 µM
